Values after ≈ are worked out from the molar mass of the structure shown.

For series [1], the target named is T1, Aryl hydrocarbon receptor (Homo sapiens, UniProt P35869).
T1 sequence (P35869 whole entry): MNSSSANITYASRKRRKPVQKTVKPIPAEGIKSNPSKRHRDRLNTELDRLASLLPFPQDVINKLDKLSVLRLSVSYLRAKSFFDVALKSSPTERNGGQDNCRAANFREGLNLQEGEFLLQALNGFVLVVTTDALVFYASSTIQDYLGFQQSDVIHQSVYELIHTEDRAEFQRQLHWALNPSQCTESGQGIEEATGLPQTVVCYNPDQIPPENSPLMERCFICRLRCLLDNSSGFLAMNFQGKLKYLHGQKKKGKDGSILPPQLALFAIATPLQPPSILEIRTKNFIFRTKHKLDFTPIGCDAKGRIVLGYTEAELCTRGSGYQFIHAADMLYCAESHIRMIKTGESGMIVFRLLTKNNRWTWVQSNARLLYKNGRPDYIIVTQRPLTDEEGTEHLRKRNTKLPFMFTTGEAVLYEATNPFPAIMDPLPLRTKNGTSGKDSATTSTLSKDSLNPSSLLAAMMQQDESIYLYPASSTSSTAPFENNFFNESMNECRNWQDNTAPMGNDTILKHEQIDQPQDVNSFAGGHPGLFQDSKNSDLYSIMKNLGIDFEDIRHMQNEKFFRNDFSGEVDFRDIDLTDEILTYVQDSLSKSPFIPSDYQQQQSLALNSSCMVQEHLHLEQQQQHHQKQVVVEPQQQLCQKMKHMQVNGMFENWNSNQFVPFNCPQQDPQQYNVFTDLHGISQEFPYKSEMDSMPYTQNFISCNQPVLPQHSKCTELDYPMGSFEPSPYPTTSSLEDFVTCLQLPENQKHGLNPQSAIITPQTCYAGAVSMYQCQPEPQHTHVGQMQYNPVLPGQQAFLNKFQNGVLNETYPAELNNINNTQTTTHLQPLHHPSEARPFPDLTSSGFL
Kind of series: Agonist activity at AhR in human recombinant HepG2-Lucia AhR cell incubated for 24 hrs by luciferase reporter gene assay. Format: cell-based. A general note: A reporter such as luciferase makes a cellular process visible.

The nature of series [2]: Induction of apoptosis in human CD4+ve Th cells. Format: toxicity, cell-based.
A short description of series [3]: n-Octanol/water partition coefficient, logD of the compound at 1 mg incubated for 48 hrs under shaking condition by LC/MS analysis. Format: physicochemical.
The nature of series [4]: Apparent permeability in MDCK cells at 50 uM incubated for 90 mins by LC/MS analysis. Format: ADME, cell-based, Canis lupus familiaris. The settings on record: dog.
Series [5] in a line: Efflux ratio of apparent permeability in MDCK cells. The settings on record: dog. Format: ADME, cell-based, Canis lupus familiaris.
The nature of series [6]: Solubility of the compound incubated for 48 hrs under shaking condition by LC/MS analysis. Format: physicochemical.

What is called EC50 is the midpoint of the concentration-response curve. For the compound `Clc1ccc(-c2nc3ccc(Br)cn3n2)cc1`, the half-maximal effective concentration (EC50) in series [1] was determined as 0.83 nM. For the compound `COc1ccc(-c2nc3ccccn3[n+]2[O-])cc1`, the concentration giving a half-maximal response (EC50) in series [1] is over 10000 nM.

For orientation: IC50 means the concentration at which inhibition is half-maximal. Take `CC(C)c1c(O)cc(/C=C/c2ccccc2)cc1O` [TAPINAROF]: in series [2], the IC50 was 5200 nM.

In the case of `Brc1ccc(-c2nc3cc(Br)ccn3n2)cc1`, the EC50 in series [1] was found to be 625 nM. In the case of `Brc1cccc(-c2nc3ccc(Br)cn3n2)c1`, the EC50 in series [1] was 9.6 nM. Consider `[O-][n+]1c(-c2ccc(Br)cc2)nc2ccc(Cl)cn21`, for which the EC50 in series [1] was 0.34 nM.

On to `Cc1ccc2nc(-c3ccc(Br)cc3)[n+]([O-])n2c1`, for which the EC50 in series [1] came out at 842 nM. Turning to `Fc1ccc2nc(-c3ccc(Br)cc3)nn2c1`, in series [1], the half-maximal effective concentration (EC50) came to 658 nM.

On to `[O-][n+]1c(-c2ccc(Br)cc2)nc2ccc(C(F)(F)F)cn21`, for which, in series [1], the half-maximal effective concentration (EC50) came to 759 nM. Regarding `FC(F)(F)c1ccc(-c2nc3ccc(Br)cn3n2)cc1`, the concentration for a half-maximal effect (EC50) in series [1] stood at 0.44 nM.

In the case of `Brc1ccc(-c2nc3cccc(Br)n3n2)cc1`, the EC50 in series [1] turned out to be 625 nM. `N#Cc1ccc2nc(-c3ccc(Br)cc3)nn2c1`: in series [1], the EC50 was 23 nM. With `[O-][n+]1c(-c2ccc(Br)cc2)nc2ccccn21`, the concentration giving a half-maximal response (EC50) in series [1] stood at 2500 nM. Broadly, the logD is lipophilicity at a set pH, counting ionised and neutral species. Low values mean lower lipophilicity, high ones higher lipophilicity. One may read the Papp as the rate of passage across a membrane or cell layer, normalised by area and donor concentration. Broadly, the efflux ratio is the permeability from basolateral to apical divided by that in the opposite direction, in the common usage. For orientation: thermodynamic solubility means solubility found after equilibrating the solid with the medium. Consider `[O-][n+]1c(-c2ccc(Br)cc2)nc2ccc(Br)cn21`, for which the logD at 48 h in series [3] worked out at 2.59. Besides, the apparent permeability coefficient (Papp) at 1.5 h, 50 µM in series [4] was 1.43 ×10⁻⁶ cm/s. In addition, in series [5], the efflux ratio came out at 6.2. The EC50 in series [1] amounted to 0.27 nM. In addition, in series [6], the solubility (thermodynamic) at 48 h was found to be 2.24 µg/mL (≈ 6.07 µM). Take `[O-][n+]1c(-c2ccc(Br)cc2)nc2cccc(Br)n21`: the EC50 in series [1] was 205 nM. Still for that read-out and setting: in the case of `Cc1ccc(-c2nc3ccc(Br)cn3n2)cc1` it was 1890 nM; in that of `Fc1ccc(-c2nc3ccc(Br)cn3n2)cc1`, 1190 nM; in that of `Clc1ccc2nc(-c3ccc(Br)cc3)nn2c1`, 156 nM. For the compound `[O-][n+]1c(-c2cccnc2)nc2ccccn21`, the concentration giving a half-maximal response (EC50) in series [1] was over 10000 nM. Regarding `[O-][n+]1c(-c2ccc(Br)nc2)nc2ccccn21`, in series [1], the 50% effective concentration (EC50) is over 10000 nM. As for `[O-][n+]1c(-c2ccc(Br)cc2)nc2c(Br)cccn21`, the 50% effective concentration (EC50) in series [1] was 374 nM. Turning to `[O-][n+]1c(-c2ccc(Br)cc2)nc2ccc(F)cn21`, the EC50 in series [1] came to 1090 nM. For `Brc1ccc2nc(-c3ccccc3Br)nn2c1`, the EC50 in series [1] was found to be 2430 nM.

Take `Brc1ccc(-c2nc3ccc(-c4ccccc4)cn3n2)cc1`: the EC50 in series [1] is over 10000 nM. The same measure, in the same setting: next, `[O-][n+]1c(-c2ccc(Cl)cc2)nc2ccccn21`: 3330 nM.

Regarding `[O-][n+]1c(-c2ccc(F)cc2)nc2ccccn21`, in series [1], the EC50 is over 10000 nM. In the case of `[O-][n+]1c(-c2ccc(Br)cc2)nc2cc(Cl)ccn21`, the EC50 in series [1] is 271 nM.

Consider `Brc1ccc2nc(-c3ccccc3)nn2c1`, for which the EC50 in series [1] is over 10000 nM. With `Brc1ccc(-c2nc3cc4ccccc4cn3n2)cc1`, the EC50 in series [1] is over 10000 nM. `[O-][n+]1c(-c2ccc(Br)cc2)nc2cc(F)ccn21`: the half-maximal effective concentration (EC50) in series [1] was found to be 83 nM.

Regarding `[O-][n+]1c(-c2ccc(-c3ccc(Cl)cc3)o2)nc2ccccn21`, the half-maximal effective concentration (EC50) in series [1] was over 10000 nM.

Take `Brc1ccc(-c2nc3c(Br)cccn3n2)cc1`: the EC50 in series [1] is 172 nM. Regarding `Cc1ccc2nc(-c3ccc(Br)cc3)nn2c1`, in series [1], the 50% effective concentration (EC50) was over 10000 nM. As to `N#Cc1ccc2nc(-c3ccc(Br)cc3)[n+]([O-])n2c1`, the EC50 in series [1] was found to be 77 nM. In the case of `COC(=O)c1ccc(-c2nc3ccccn3[n+]2[O-])cc1`, in series [1], the EC50 was over 10000 nM. Regarding `[O-][n+]1c(-c2ccc3ccccc3c2)nc2ccccn21`, the 50% effective concentration (EC50) in series [1] is over 10000 nM. On the same count and under the same terms, next, `[O-][n+]1c(-c2ccc(Br)cc2)nc2cc(Br)ccn21`: 62 nM; `[O-][n+]1c(-c2ccncc2)nc2ccccn21`: 4660 nM.

The values above are taken from ChEMBL document CHEMBL5154726, “Identification of triazolopyridine derivatives as a new class of AhR agonists and evaluation of anti-psoriasis effect in a mouse model” (Eur J Med Chem, 2022).
